Data as given in patent publication US20030119800A1, “Bone anabolic compounds and methods of use” (priority 2001, published 2003).

How the values were obtained:
[1] = test system: OVX or ORX Swiss Webster mice; assay: Gonadectomized (OVX or ORX) Swiss Webster mice with 60-day slow release pellets: bone and reproductive tissues; type: in vivo, mouse
Experimental: Osteoblastic cells (A) were isolated from calvaria of neonatal female or male mice, the sex of which was determined by Southern blot analysis of liver DNA with a Y chromosome specific cDNA probe; and cultured as previously described. The ability of the indicated steroids to protect against etoposide induced apoptosis was determined as in FIG. 1D, lower panel. (B) Osteoclasts were generated in bone marrow cultures from adult female or male mice, and then treated with vehicle or the indicated concentrations of steroids for 24 hours at which point the number of cells undergoing apoptosis was determined. Representative results from 1 of 4 females and 1 of 4 males examined are shown. Each point represents the mean of triplicate determinations±SD. *p<0.05 vs. vehicle, by ANOVA. (C & D) Eight-month old Swiss Webster mice (n=8-10 per group) were sham-operated, ovariectomized (OVX) or orchidectomized (ORX). […] BMD and wet uterine or seminal vesicle weight was determined six weeks later. Bars indicate means±SD. *p<0.05 vs OVX or ORX.
FIG. 9 illustrates the equivalence of the skeletal actions of estrogens and androgens in female and male mice. […] Six weeks later, osteoblast apoptosis in histologic sections of the vertebrae (A), osteoblastogenesis and osteoclastogenesis in ex vivo bone marrow cultures (B and C), and serum osteocalcin concentration (D) were determined. Bars indicate means±SD, *p<0.05 vs OVX or ORX.
Global, spine and hindlimb BMD was determined at both 4 and 6 weeks later in the experiment with the 8 month old females, and at 6 weeks only in the experiments with the 6 month old females and males (A, B and C). The 6 week BMD data in females (B) represent pooled values from the two experiments with the 6- and the 8-month old mice.
Longitudinal undecalcified sections of the distal femur are shown in (B). […] Osteoblast apoptosis in sections of L1-L4 vertebrae from females (8 month old) and males (C).
Histomorphometric analysis of L1-L4 vertebrae from 6 month old females (A-F) and pooled serum osteocalcin levels from the 6 and 8 month old females (G). […] The ANGELS compounds described herein are useful for maintaining and/or increasing bone mass and/or strength and/or density in mammals. Mammals, preferably humans, in need of such compounds can include those suffering from such conditions as female osteoporosis (post menopausal), male osteoporosis, glucocorticoid-induced osteoporosis, immobilization and aging-related osteoporosis, idiopathic or juvenile osteoporosis, transplantation-related osteoporosis, and alveolar ridge bone loss. In addition, the compounds described herein are particularly useful for administration to subjects that are unable or unwilling to tolerate therapies that have a masculinizing or feminizing effect. For example, subjects such as breast cancer patients (especially those with bone metastasis on gonadotropin […] hormone (GnRH) or ovariectomized), prostrate cancer patients (especially those on GnRH/castration therapy), and myeloma/lymphoma patients are frequently poor candidates for treatment with estrogen or androgens because of the risk of a recurrence of the underlying condition, e.g., cancer.
Wet uterine (A) or seminal vesicle weight (B) of female and male mice described in FIG. 11. […] Note the following morphologic differences in the uteri of OVX- and OVX+4-estren-3α,17β-diol-treated mice as compared to uteri from sham-operated and OVX+E2-treated mice: thin and atrophic columnar epithelium; compact stroma; decreased number of glands; decreased nucleus to cytoplasmic ratio in the columnar epithelial, endometrial stroma, and myometrial cells; and absence of mitotic activity. (D) Proliferation of MCF-7 cells was determined by ^3H-thymidine uptake.
For these studies, mature Swiss Webster mice (8 month old), n=8-10 per group, were sham-operated or gonadectomized (GNDX). […]

ERα = molecular target: T1, ERα (Homo sapiens, UniProt P03372); assay: SRE-SEAP and AP-1-SEAP reporter assays in HeLa cells transfected with ERα; type: cell-based; details: steroids 10^−8 M for 15 minutes (E2 as little as five minutes), SEAP six hours later
T1 construct: HeLa cells transfected with the full length ERα; expressed in transfected cells; host or cells: HeLa
T1 sequence (P03372 whole entry): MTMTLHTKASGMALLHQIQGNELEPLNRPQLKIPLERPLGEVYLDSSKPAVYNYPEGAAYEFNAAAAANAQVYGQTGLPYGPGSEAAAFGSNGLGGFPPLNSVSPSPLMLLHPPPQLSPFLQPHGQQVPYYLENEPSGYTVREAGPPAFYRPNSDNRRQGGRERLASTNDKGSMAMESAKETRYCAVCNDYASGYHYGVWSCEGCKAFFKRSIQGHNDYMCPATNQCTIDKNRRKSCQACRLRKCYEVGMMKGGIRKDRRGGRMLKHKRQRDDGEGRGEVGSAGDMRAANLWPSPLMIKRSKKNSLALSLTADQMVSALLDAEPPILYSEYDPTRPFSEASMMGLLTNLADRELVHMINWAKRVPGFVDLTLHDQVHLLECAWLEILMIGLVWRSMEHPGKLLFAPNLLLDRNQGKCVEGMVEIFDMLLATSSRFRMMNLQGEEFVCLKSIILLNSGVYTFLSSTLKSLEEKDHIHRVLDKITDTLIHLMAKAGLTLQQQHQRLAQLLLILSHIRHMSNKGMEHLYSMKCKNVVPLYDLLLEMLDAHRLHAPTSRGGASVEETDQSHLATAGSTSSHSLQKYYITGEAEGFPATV
Experimental: HeLa cells were co-transfected with reporter constructs in which SRE or AP-1 drive the expression of secreted alkaline phosphatase (SEAP), along with the wild type ERα (A and B); or its ligand binding domain (E), or E fused to a membrane (E-Mem) or nuclear (E-Nuc) localization sequence (A). A dominant negaitve (dn) MEK or dn Jnk were also introduced into a subset of the ERα transfected cells. Cells were exposed to vehicle or the indicated steroids (10^−8M) for 15 minutes. The steroid containing media were then removed, the cells were washed twice, and the cultures were continued in fresh medium without steroids. Supernatants were collected six hours later and SEAP activity was assayed. In FIGS. 1A and 1B, 100% indicates activity in vehicle treated cells. (C) HeLa cells were co-transfected with the ERα and nEGFP and wild type or dn mutants of the indicated transcription factors. […] (D) HeLa cells (upper panel) were transiently co-transfected with the ERα, a nonphosphorylatable dn mutant of Bad. […] Cells were then treated as in (C).
Transient transfections and reporter assays: HeLa cells were transfected using Lipofectamine Plus (Life Technologies Inc.). For reporter assays (luciferase or secreated alkaline phosphatase SEAP), serum-starved cells were treated with the indicated steroids for 15 min after which the steroid-containing media were removed, cells washed twice with 1% BSA in PBS, and fresh media without steroid were added. SEAP or luciferase assays were performed 6 h later using the Great EscAPe SEAP Chemiluminescence Kit (Clontech, Palo Alto, Calif.) or the dual luciferase Kit (Promega, Madison, Wis.), respectively, according to the manufacturer's instructions. Both reporter activities were normalized to renilla luciferase activity.

[2] = histomorphometry of lumbar vertebrae L1-L4, OVX females

For `C[C@]12CC[C@H]3[C@@H](CCC4=C[C@H](O)CC[C@@H]43)[C@@H]1CC[C@@H]2O` [4-estren-3α,17β-diol], the body weight ([1]; 7.6 mg per 60 day slow release pellet) was “no effect”, the “effect on the bone marrow cavity” value ([1]; 4-estren-3α,17β-diol 7.6 mg pellet, E2 pharmacologic dose 100× the replacement dose) was “no adverse effects” and the “longitudinal undecalcified sections of the distal femur” value ([1]; 4-estren-3α,17β-diol at 300× ERT versus vehicle or E2 1× ERT, E2 at 100× ERT) was “increased cortical and trabecular width”. The “bone compression strength in the vertebrae, male mice” value ([1]; L5, ORX) was “equally effective”, the “bone compression strength in the vertebrae, female mice” value ([1]; L5, compared to mice receiving E2) was “greater than in mice receiving E2” and the “BMD in ORX mice compared to DHT replacement” value ([1]; ORX males, 7.6 mg pellet) was “at least as effective if not superior”. For the same molecule, the “BMD values in the spine versus the untreated ORX group” value ([1]; ORX males, 6 weeks) was “significantly higher”, the seminal vesicle weight ([1]; ORX males, pellets E2 0.025 mg or 4-estren-3α,17β-diol 7.6 mg) was “no effect” and the “histologic analysis of the uterus” value ([1]; OVX females) was “lack of an effect”. The wet uterine weight ([1]; OVX females, pellets DHT 10 mg or 4-estren-3α,17β-diol 7.6 mg) was “no effect”, the “BMD change in the hindlimb” value ([1]; OVX mice, compared to OVX+E2 replacement and to estrogen replete sham controls) was “greater BMD change” and the “global and spinal BMD in females” value ([1]; OVX, 7.6 mg pellet versus E2 replacement) was “as effective, if not superior to estradiol”. For the same molecule, the osteoclast number ([1]; as compared to the OVX group) was “suppressed”, the “rate of bone formation” value ([1]; as compared to the OVX group) was “suppressed” and the “prevalence of osteoblast and osteocyte apoptosis in the lumbar vertebrae” value ([1]; gonadectomized females or males) was “prevented the increased prevalence”. For the same molecule, the “cortical width, greater compared to OVX mice treated with E2” value [1, 2] was 27.8%, the “number of osteoblasts on the trabeculae, greater than in the E2-treated group” value [1, 2] was 319% and the “osteoid perimeter, increase versus E2-treated group” value [1, 2] was 270%. The “trabecular width, greater compared to OVX mice treated with E2” value [1, 2] was 33.9%, the serum osteocalcin ([1]; two separate experiments, compared to OVX+E2 and to estrogen replete sham controls) was “significantly higher” and the “AP-1-dependent transcriptional activity (AP-1-SEAP)” value (ERα) was “downregulation of AP-1”. The “SRE-dependent transcriptional activity (SRE-SEAP)” value (ERα) was “Stimulation of SRE”.
